EC50 and CC50 data for 15 compounds are collected here from patent US9126986B2, “Hetero-bicyclic derivatives as HCV inhibitors” (Janssen R&D Ireland, priority 2011, dated 2015).

pEC50: −log10 of the molar value. Read-outs that look alike come from different tables or passages of the source.

The subject of data set [1] is HCV subgenomic replicon genotype 1a H77 in Huh-7 lunet cells. The data set is described as follows: HCV replicon assay, transient transfection, genotype 1a H77. Type of data set: cell-based, HCV genotype 1a H77. Conditions: transiently transfected Huh-7 lunet, genotype 1a H77, two days incubation, luciferase. From the text:
(§1) In a transient set-up, a Huh-7 lunet hepatoma cell line was transiently transfected with an autonomously replicating RNA encoding a bi-cistronic expression construct. This construct comprises a firefly luciferase reporter gene preceding the NS3-NS5B subgenomic region of HCV (genotype 1a H77 or 1b Con1). Translation of the HCV subgenomic region is mediated by an internal ribosome entry site of encephalomyocarditis virus. The construct is furthermore flanked by 5′ and 3′ untranslated regions of HCV (genotype 1a H77 or 1b Con 1, respectively), which allow for replication of the RNA.
(§2) Cells were plated in 384 well plates in the presence of test and control compounds, which were added in various concentrations. Following an incubation of two days, replication of the HCV subgenomic replicon RNA was measured by assaying luciferase activity (using standard luciferase assay substrates and reagents and a Perkin Elmer ViewLux™ ultraHTS microplate imager). HCV subgenomic replicon containing cells in the control cultures have high luciferase expression in the absence of any inhibitor. The inhibitory activity of the compound was monitored, enabling a dose-response curve for each test compound. EC50 values were then calculated, which represent the amount of compound required to decrease the level of detected luciferase activity by 50%, or more specifically, to reduce the ability of the genetically linked HCV subgenomic RNA to replicate.
On the technique in general: A replicon is a self-replicating genome or part of one, used to study replication in cells.

The subject of data set [2] is HCV subgenomic replicon genotype 1b Con1 in Huh-7 lunet cells. The data set is described as follows: HCV replicon assay, transient transfection, genotype 1b Con1. Type of data set: cell-based, HCV genotype 1b Con1. The conditions noted are these: transiently transfected Huh-7 lunet, genotype 1b Con1, two days incubation, luciferase.
Text: as §1, §2

Data set [3] in a line: Counterscreen Huh7-CMV-Luc. Type of data set: cell-based. The conditions noted are these: Huh-7 hepatoma cell line with human CMV major immediate-early promoter-Luc construct. From the text: (§3) Counterscreen cell lines included a Huh-7 hepatoma cell line containing a human cytomegalovirus major immediate-early promoter-Luc construct (Huh7-CMV-Luc) and an MT4 T-cell line containing a long terminal repeat-Luc reporter (MT4-LTR-Luc).
On the technique in general: The purpose of a counterscreen is to sort out artefacts and off-target activity.

For data set [4], the system named is HCV replicon type 1b in Huh-Luc cells. The data set is described as follows: HCV replicon assay, stable transfection (Huh-7 luc/neo, luciferase readout). Type of data set: cell-based, HCV type 1b. Conditions: stably transfected Huh-Luc cells, genotype 1b, three days incubation, average where tested more than once, read-out: HCV-REP-HUH7LUC_EC50. From the text: The compounds of formula (I) were examined for inhibitory activity in the HCV replicon. This cellular assay is based on a bicistronic expression construct, as described by Lohmann et al. (Science (1999) 285: 110-113; Journal of Virology (2003) 77: 3007-3019) with modifications described by Krieger et al. (Journal of Virology (2001) 75: 4614-4624), and Lohmann et al. (Journal of Virology (2003) 77: 3007-3019) for genotype 1b and by Yi et al. (Journal of Virology (2004) 78: 7904-7915) for genotype 1a, in a multi-target screening strategy.
The method was as follows. The assay utilized the stably transfected cell line Huh-7 luc/neo (hereafter referred to as Huh-Luc). This cell line harbors an RNA encoding a bicistronic expression construct comprising the wild type NS3-NS5B regions of HCV type 1b translated from an Internal Ribosome Entry Site (IRES) from encephalomyocarditis virus (EMCV), preceded by a reporter portion (FfL-luciferase), and a selectable marker portion (neoR, neomycine phosphotransferase). The construct is flanked by 5′ and 3′ NTRs (non-translated regions) from HCV type 1b. Continued culture of the replicon cells in the presence of G418 (neoR) is dependent on the replication of the HCV RNA. The stably transfected replicon cells that replicate HCV RNA autonomously and to high levels, encoding inter alia luciferase, were used for screening the antiviral compounds.
The replicon cells were plated in 384 well plates in the presence of the test and control compounds which were added in various concentrations. Following an incubation of three days, HCV replication was measured by assaying luciferase activity (using standard luciferase assay substrates and reagents and a Perkin Elmer ViewLux™ ultraHTS microplate imager). Replicon cells in the control cultures have high luciferase expression in the absence of any inhibitor. The inhibitory activity of the compound was monitored on the Huh-Luc cells, enabling a dose-response curve for each test compound. EC50 values were then calculated, which represent the amount of compound required to decrease the level of detected luciferase activity by 50%, or more specifically, to reduce the ability of the genetically linked HCV replicon RNA to replicate.
Where a compound of formula (I) was tested more than once in the replicon assay, the average of all test results is given in this Table 1.

Data set [5] is described as follows: Counterscreen MT4-LTR-Luc. Type of data set: cell-based. Conditions: human; MT4 T-cell line with long terminal repeat-Luc reporter.
Text: as §3

Another data set has as its system MT4-LTR-Luc cells. Kind of data set: Counterscreen MT4-LTR-Luc. The conditions noted are these: MT4 T-cell line with long terminal repeat-Luc reporter. Type of data set: cell-based.
Text: as §3

Broadly, the CC50 is the concentration that lowers cell viability or growth by half. A low value points to harm at low concentration. As for `COC(=O)N[C@H](C(=O)N1CCC[C@H]1c1ncc(-c2ccc3c(c2)C(F)(F)c2cc(-c4ccc5c(=O)cc([C@@H]6C[C@@H]7CCCC[C@@H]7N6C(=O)[C@@H](NC(=O)OC)C(C)C)[nH]c5c4)ccc2-3)[nH]1)C(C)C` [Compound 6], the pEC50 is 11.30 in data set [1] (Hepatitis C virus, Huh-7, 48 h); 10.89 in data set [2] (Hepatitis C virus, Huh-7, 48 h); 10.92 in data set [4] (Hepatitis C virus, Huh-7, 72 h). Moreover, the CC50 in data set [3] and in data set [5] was over 984 nM throughout.
For the compound `COC(=O)N[C@H](C(=O)N1CCC[C@H]1c1ncc(-c2ccc3c(c2)C(F)(F)c2cc(-c4ccc5c(=O)cc([C@@H]6[C@H]7CC[C@H](C7)N6C(=O)[C@@H](NC(=O)OC)C(C)C)[nH]c5c4)ccc2-3)[nH]1)C(C)C` [Compound 8], the pEC50 is 11.52 in data set [1] (Hepatitis C virus, Huh-7, 48 h); 11.30 in data set [2] (Hepatitis C virus, Huh-7, 48 h); 11.40 in data set [4] (Hepatitis C virus, Huh-7, 72 h). The values for the CC50 in data set [3] and in data set [5] were over 984 nM and 770 nM, respectively.
Take `COC(=O)N[C@H](C(=O)N1CCCC1c1cc(=O)c2ccc(-c3ccc(-c4ccc(-c5cnc([C@@H]6CCCN6C(=O)[C@@H](NC(=O)OC)C(C)C)[nH]5)cc4)cc3)cc2[nH]1)C(C)C` (single isomer, unassigned) [Compound 3a]: the figures for the pEC50 in data set [1], in data set [2] and in data set [4] were 11.10, 10.60 and 10.68, respectively. In addition, the CC50 in data set [3] and in data set [5] was over 984 nM throughout.
With `COC(=O)N[C@H](C(=O)N1CCC[C@H]1c1nc(-c2ccc(-c3ccc(-c4ccc5c(=O)nc([C@@H]6CCCN6C(=O)[C@@H](NC(=O)OC)C(C)C)[nH]c5c4)cc3)cc2)c[nH]1)C(C)C` [Compound 11], the pEC50 in data set [1] (Hepatitis C virus, Huh-7, 48 h) was 8.83; in data set [2] (Hepatitis C virus, Huh-7, 48 h) it was 10.60; in data set [4] (Hepatitis C virus, Huh-7, 72 h) it was 9.83. In addition, the CC50 in data set [3] and in data set [5] was over 984 nM throughout.
Consider `COC(=O)N[C@H](C(=O)N1CCCC1c1cc(=O)c2ccc(-c3ccc4c(c3)C(F)(F)c3cc(-c5c[nH]c([C@@H]6CCCN6C(=O)[C@@H](NC(=O)OC)C(C)C)n5)ccc3-4)cc2[nH]1)C(C)C` (single isomer, unassigned) [Compound 5a], for which the pEC50 is 11.15 in data set [1], 10.89 in data set [2] and 10.85 in data set [4]. For the same compound, the CC50 in data set [3] and in data set [5] was over 984 nM throughout.
Turning to `COC(=O)N[C@H](C(=O)N1CCC[C@H]1c1ncc(-c2ccc3c(c2)C(F)(F)c2cc(-c4ccc5c(=O)[nH]c([C@@H]6CCCN6C(=O)[C@@H](NC(=O)OC)C(C)C)nc5c4)ccc2-3)[nH]1)C(C)C` [Compound 12], the pEC50 in data set [1] (Hepatitis C virus, Huh-7, 48 h) was 10.33; in data set [2] (Hepatitis C virus, Huh-7, 48 h), 11.30; in data set [4] (Hepatitis C virus, Huh-7, 72 h), 11.15. In data set [3], this compound showed a CC50 of over 984 nM.
On to `COC(=O)N[C@H](C(=O)N1CCC[C@H]1C1=NS(=O)(=O)c2ccc(-c3ccc4c(c3)C(F)(F)c3cc(-c5cnc([C@@H]6CCCN6C(=O)[C@@H](NC(=O)OC)C(C)C)[nH]5)ccc3-4)cc2N1)C(C)C` [Compound 14], for which the pEC50 in data set [1] (Hepatitis C virus, Huh-7, 48 h) is 11.30; in data set [2] (Hepatitis C virus, Huh-7, 48 h), 10.77; in data set [4] (Hepatitis C virus, Huh-7, 72 h), 11.10. Also, the CC50 in data set [3] and in data set [5] was over 984 nM each time.
Turning to `COC(=O)N[C@H](C(=O)N1CCC[C@H]1C1=NC2(COC2)c2ccc(-c3ccc(-c4ccc(-c5cnc([C@@H]6CCCN6C(=O)[C@@H](NC(=O)OC)C(C)C)[nH]5)cc4)cc3)cc2N1)C(C)C` [Compound 20], the pEC50 is 9.34 in data set [1] (Hepatitis C virus, Huh-7, 48 h); over 10.72 in data set [2] (Hepatitis C virus, Huh-7, 48 h); 10.64 in data set [4] (Hepatitis C virus, Huh-7, 72 h). For the same compound, the CC50 in data set [3] and in data set [5] was over 984 nM each time.
With `COC(=O)N[C@H](C(=O)N1CCCC1c1cc(=O)c2ccc(-c3ccc(-c4ccc(-c5cnc([C@@H]6CCCN6C(=O)[C@@H](NC(=O)OC)C(C)C)[nH]5)cc4)cc3)cc2[nH]1)C(C)C` (single isomer, unassigned) [Compound 3b], the pEC50 is 9.03 in data set [1], 8.87 in data set [2] and 8.95 in data set [4]. The compound also gave a CC50 in the data set with MT4-LTR-Luc cells of over 984 nM.
On to `COC(=O)N[C@H](C(=O)N1CCCC1c1cc(=O)c2ccc(-c3ccc4c(c3)C(F)(F)c3cc(-c5c[nH]c([C@@H]6CCCN6C(=O)[C@@H](NC(=O)OC)C(C)C)n5)ccc3-4)cc2[nH]1)C(C)C` (single isomer, unassigned) [Compound 5b], for which the pEC50 in data set [1] is 9.68; in data set [2], 9.20; in data set [4], 9.64. The CC50 in the data set with MT4-LTR-Luc cells was over 984 nM.
On to `COC(=O)N[C@H](C(=O)N1CCC[C@H]1C1=NS(=O)(=O)c2ccc(-c3ccc(-c4ccc(-c5c[nH]c([C@@H]6CCCN6C(=O)[C@@H](NC(=O)OC)C(C)C)n5)cc4)cc3)cc2N1)C(C)C` [Compound 22], for which the pEC50 is 10.27 in data set [1] (Hepatitis C virus, Huh-7, 48 h); 10.92 in data set [2] (Hepatitis C virus, Huh-7, 48 h); 10.92 in data set [4] (Hepatitis C virus, Huh-7, 72 h). Further, the CC50 in data set [3] and in data set [5] was over 984 nM throughout.
`COC(=O)N[C@H](C(=O)N1CCCC1c1[nH]c2cc(-c3ccc(-c4ccc(-c5cnc([C@@H]6CCCN6C(=O)[C@@H](NC(=O)OC)C(C)C)[nH]5)cc4)cc3)ccc2c(=O)c1F)C(C)C` (single isomer, unassigned) [Compound 18a]: the pEC50 was 10.96 in data set [1], 10.43 in data set [2] and 10.52 in data set [4]. For the same compound, the CC50 in data set [3] and in data set [5] was over 984 nM in each case.
For `COC(=O)N[C@H](C(=O)N1CCC[C@H]1C1=NC2(COC2)c2ccc(-c3ccc4c(c3)C(F)(F)c3cc(-c5cnc([C@@H]6CCCN6C(=O)[C@@H](NC(=O)OC)C(C)C)[nH]5)ccc3-4)cc2N1)C(C)C` [Compound 16], the pEC50 in data set [1] (Hepatitis C virus, Huh-7, 48 h) is 10.40; in data set [2] (Hepatitis C virus, Huh-7, 48 h), 10.48; in data set [4] (Hepatitis C virus, Huh-7, 72 h), 10.96. Also, the CC50 in data set [3] and in data set [5] was over 984 nM in each case.
As to `COC(=O)N[C@H](C(=O)N1CCC[C@H]1c1cc(=O)c2cc(F)c(-c3ccc(-c4ccc(-c5cnc([C@@H]6CCCN6C(=O)[C@@H](NC(=O)OC)C(C)C)[nH]5)cc4)cc3)cc2[nH]1)C(C)C` [Compound 7], the pEC50 was 10.38 in data set [1] (Hepatitis C virus, Huh-7, 48 h); 10.68 in data set [2] (Hepatitis C virus, Huh-7, 48 h); 11.10 in data set [4] (Hepatitis C virus, Huh-7, 72 h). Besides, the CC50 in data set [3] and in data set [5] was over 984 nM in each case.
Consider `COC(=O)N[C@H](C(=O)N1CC2(C[C@H]1c1ncc(-c3ccc4c(c3)C(F)(F)c3cc(-c5ccc6c(=O)[nH]c([C@@H]7C[C@@H]8CCCC[C@@H]8N7C(=O)[C@@H](NC(=O)OC)C(C)C)nc6c5)ccc3-4)[nH]1)OCCO2)C(C)C` [Compound 23], for which the pEC50 in data set [1] (Hepatitis C virus, Huh-7, 48 h) was 11.30; in data set [2] (Hepatitis C virus, Huh-7, 48 h) it was 11.30; in data set [4] (Hepatitis C virus, Huh-7, 72 h), 11.22. Also, the CC50 in data set [3] and in data set [5] was over 984 nM in each case.
